In one test the target is DNAPK (Homo sapiens (Human), UniProt P78527). The test can be described thus: DNAPK cellular potency assay (DNA-PK cell), pS2056-DNAPK ELISA in irradiated A549 cells. It counts as cell-based. As to conditions: 8 Gy radiation, arithmetic mean of two or more experiments, read-out: DNA-PK cell pIC50 (converted). How it is done:
The DNAPK cell ELISA assay was performed in the A549 cell line. A549 cells were cultured in cell media composed of MEM-F12 (Minimum Essential Medium F12 Sigma #D6421), 10% (v/v) Foetal Calf Serum and 1% (v/v) 200 mM L-Glutamine. […] The following day the Greiner ELISA plates were washed 3× with PBS-T and blocked with 3% BSA/PBS for 2 h, before a further 3× wash with PBS-T.
The cell plates were then incubated for 1 h at 37° C. before receiving a radiation dose of 8 Gy (XRAD 320, table height 65). The cells were incubated for a further 1 h before removal of cell media. […] Cell lysates ([…]) were transferred to the DNAPK antibody-coated ELISA plates using a CyBio Felix liquid handling platform, and ELISA plates were incubated at 4° C. overnight.
The following day, ELISA plates were washed 3× with PBS-T and dispensed with in-house pS2056-DNAPK antibody (0.5 μg/mL in 3% BSA/PBS) at 20 ul/well.
The fluorescence intensity of individual wells was determined using a PerkinElmer EnVision plate reader.
Data was analysed and IC50 values were calculated using Genedata Screener® software (Genedata, Inc., Basel, Switzerland).

The next test concerns the target JAK3 (Homo sapiens (Human), UniProt P52333). Put plainly: JAK3 enzyme assay (Z'-LYTE). The note with it: 10 μM ATP, arithmetic mean of two or more experiments; for IC50: read-out: JAK3 enz pIC50 (converted). The class given is biochemical. As for the experimental part: (§1) The inhibitory activity of compounds against AURKA, AURKB, JAK1, JAK2 and JAK3 was determined in Z′-LYTE® assays run by ThermoFisher Scientific as part of their SelectScreen® Biochemical Kinase Profiling Service. The Z′-LYTE® biochemical assay format employs a fluorescence-based, coupled-enzyme format and is based on the differential sensitivity of phosphorylated and non-phosphorylated peptides to proteolytic cleavage. The peptide substrate is labeled with two fluorophores—one at each end—that make up a FRET pair. In the primary reaction, the kinase transfers the gamma-phosphate of ATP to a single tyrosine, serine or threonine residue in a synthetic FRET-peptide. In the secondary reaction, a site-specific protease recognises and cleaves non-phosphorylated FRET-peptides. Phosphorylation of FRET-peptides suppresses cleavage by the Development Reagent. Cleavage disrupts FRET between the donor (i.e., coumarin) and acceptor (i.e., fluorescein) fluorophores on the FRET-peptide, whereas uncleaved, phosphorylated FRET-peptides maintain FRET. A ratiometric method, which calculates the ratio (the Emission Ratio) of donor emission to acceptor emission after excitation of the donor fluorophore at 400 nm, is used to quantitate reaction progress. Both cleaved and uncleaved FRET-peptides contribute to the fluorescence signals and therefore to the Emission Ratio. The extent of phosphorylation of the FRET-peptide can be calculated from the Emission Ratio.
(§2) 10 point three-fold dilution compound concentration-response curves, with a top concentration of 10 μM were generated from 10 mM stocks of compound solubilised in DMSO. All assays were performed in black, non-binding, low volume Corning 384-well plates (cat. #4514, Corning), in a total reaction volume of 10 μL and 1% (v/v) final DMSO concentration. […] The kinase reaction was then quenched by the addition of 5 μL of Development Reagent (ThermoFisher Scientific proprietary). […] IC50 values were calculated using XLfit software (IDBS Ltd, Surrey, UK), with the curve fit to model number 205 (sigmoidal dose-response model).
JAK3: The 2×JAK3/Tyr 06 (ThermoFisher Scientific proprietary) mixture was prepared in 50 mM HEPES pH 7.5. 0.01% BRIJ-35, 10 mM MgCl2, 1 mM EGTA. […] After the 1 hour Kinase Reaction incubation, 5 μL of a 1:128 dilution of Development Reagent was added.

Another test has as its target JAK1 (Homo sapiens (Human), UniProt P23458). The test can be described thus: JAK1 enzyme assay (Z'-LYTE). The class given is biochemical. As to conditions: 75 μM ATP, arithmetic mean of two or more experiments; for IC50: read-out: JAK1 enz pIC50 (converted). As for the experimental part: as §1, §2
JAK1: The 2×JAK/Tyr 06 (ThermoFisher Scientific proprietary) mixture was prepared in 50 mM HEPES pH 6.5, 0.01% BRIJ-35, 10 mM MgCl2, 1 mM EGTA, 0.02% NaN3. […] After the 1 hour Kinase Reaction incubation, 5 μL of a 1:128 dilution of Development Reagent was added.

JAK1, sequence (P23458 whole entry): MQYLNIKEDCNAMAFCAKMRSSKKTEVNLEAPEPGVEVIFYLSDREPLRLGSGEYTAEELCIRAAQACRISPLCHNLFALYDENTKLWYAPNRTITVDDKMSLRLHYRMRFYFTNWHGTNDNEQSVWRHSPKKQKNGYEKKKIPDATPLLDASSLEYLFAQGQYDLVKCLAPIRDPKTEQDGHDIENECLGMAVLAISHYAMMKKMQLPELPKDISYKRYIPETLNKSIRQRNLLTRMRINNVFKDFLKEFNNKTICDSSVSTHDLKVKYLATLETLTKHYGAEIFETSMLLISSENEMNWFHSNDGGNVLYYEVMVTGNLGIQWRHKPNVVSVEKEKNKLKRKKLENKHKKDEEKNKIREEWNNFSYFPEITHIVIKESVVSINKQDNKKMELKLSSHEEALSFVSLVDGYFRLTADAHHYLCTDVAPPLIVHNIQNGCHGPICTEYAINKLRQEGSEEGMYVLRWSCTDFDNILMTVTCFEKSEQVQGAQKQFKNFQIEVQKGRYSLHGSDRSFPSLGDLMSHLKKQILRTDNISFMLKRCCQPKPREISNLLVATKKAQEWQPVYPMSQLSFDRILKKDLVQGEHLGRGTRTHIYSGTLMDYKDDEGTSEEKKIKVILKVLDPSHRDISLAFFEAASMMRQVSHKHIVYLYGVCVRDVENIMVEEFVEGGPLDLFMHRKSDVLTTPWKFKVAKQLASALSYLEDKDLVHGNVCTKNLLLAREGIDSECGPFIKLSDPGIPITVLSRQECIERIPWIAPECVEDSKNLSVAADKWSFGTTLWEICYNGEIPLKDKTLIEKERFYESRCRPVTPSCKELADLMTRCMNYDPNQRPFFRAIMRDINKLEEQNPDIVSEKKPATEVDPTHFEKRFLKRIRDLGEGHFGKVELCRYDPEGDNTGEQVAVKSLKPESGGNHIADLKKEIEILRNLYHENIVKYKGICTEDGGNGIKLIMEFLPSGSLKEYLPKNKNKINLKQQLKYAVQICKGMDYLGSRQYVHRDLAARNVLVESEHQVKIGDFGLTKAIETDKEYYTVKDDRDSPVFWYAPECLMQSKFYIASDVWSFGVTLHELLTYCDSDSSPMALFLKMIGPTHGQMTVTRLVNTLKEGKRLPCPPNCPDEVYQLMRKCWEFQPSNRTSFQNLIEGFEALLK
JAK3, sequence (P52333 whole entry): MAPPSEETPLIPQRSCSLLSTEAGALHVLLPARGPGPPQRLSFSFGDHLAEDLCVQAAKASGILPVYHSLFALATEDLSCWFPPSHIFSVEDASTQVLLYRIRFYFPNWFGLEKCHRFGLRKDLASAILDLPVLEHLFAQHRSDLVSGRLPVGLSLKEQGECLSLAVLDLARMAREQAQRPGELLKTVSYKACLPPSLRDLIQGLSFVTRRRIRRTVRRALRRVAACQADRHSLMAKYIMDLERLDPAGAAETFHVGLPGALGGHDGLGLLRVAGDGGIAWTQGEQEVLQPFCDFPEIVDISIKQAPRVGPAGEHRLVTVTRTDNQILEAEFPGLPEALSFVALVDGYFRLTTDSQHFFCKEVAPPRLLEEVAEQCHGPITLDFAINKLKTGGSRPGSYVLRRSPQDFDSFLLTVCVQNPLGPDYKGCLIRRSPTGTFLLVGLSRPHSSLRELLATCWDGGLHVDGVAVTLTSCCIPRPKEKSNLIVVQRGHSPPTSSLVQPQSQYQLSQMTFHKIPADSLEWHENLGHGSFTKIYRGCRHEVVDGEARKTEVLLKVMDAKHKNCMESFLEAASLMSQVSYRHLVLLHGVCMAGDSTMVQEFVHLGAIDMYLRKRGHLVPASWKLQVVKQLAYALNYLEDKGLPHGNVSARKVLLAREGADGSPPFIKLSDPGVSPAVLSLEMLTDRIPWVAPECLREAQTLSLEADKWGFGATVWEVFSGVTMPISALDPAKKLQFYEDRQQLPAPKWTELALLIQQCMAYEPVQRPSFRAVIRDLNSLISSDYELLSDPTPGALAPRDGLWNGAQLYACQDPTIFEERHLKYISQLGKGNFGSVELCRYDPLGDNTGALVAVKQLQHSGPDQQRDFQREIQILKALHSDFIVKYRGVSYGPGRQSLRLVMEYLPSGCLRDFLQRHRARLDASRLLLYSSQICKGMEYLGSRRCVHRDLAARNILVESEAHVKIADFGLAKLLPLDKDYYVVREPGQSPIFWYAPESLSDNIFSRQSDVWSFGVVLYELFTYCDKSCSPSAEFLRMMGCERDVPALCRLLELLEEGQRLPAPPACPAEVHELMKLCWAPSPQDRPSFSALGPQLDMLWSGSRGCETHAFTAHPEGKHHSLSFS

In the case of `CC(=O)N1CCC(n2c(=O)n(C)c3cnc(Nc4cc5ccnnc5cc4C)nc32)CC1` [Example 1, 9-(1-acetylpiperidin-4-yl)-7-methyl-2-((7-methylcinnolin-6-yl)amino)-7,9-dihydro-8H-purin-8-one], the IC50 at DNAPK was 0.2 µM. Besides, at JAK3, the “JAK3 enz pIC50” value was below 5. The “JAK1 enz pIC50” value at JAK1 is on record as below 5.

Regarding `CC(=O)N1CCC(n2c(=O)n(C)c3cnc(Nc4cc5nccnc5cc4C)nc32)CC1` [Example 2, 9-(1-acetylpiperidin-4-yl)-7-methyl-2-((7-methylquinoxalin-6-yl)amino)-7,9-dihydro-8H-purin-8-one], the IC50 on DNAPK was 0.0501 µM. The “JAK3 enz pIC50” value at JAK3 is on record as below 5. At JAK1, the “JAK1 enz pIC50” value is below 5.

Consider `CC(=O)N1CCC(n2c(=O)n(C)c3cnc(Nc4cc5cncnc5cc4C)nc32)CC1` [Example 3, 9-(1-acetylpiperidin-4-yl)-7-methyl-2-((7-methylquinazolin-6-yl)amino)-7,9-dihydro-8H-purin-8-one], for which, on DNAPK, the IC50 is 0.0631 µM. The “JAK3 enz pIC50” value on JAK3 is listed as below 5. In addition, the “JAK1 enz pIC50” value on JAK1 is below 5.

Turning to `CC(=O)N1CCC(n2c(=O)n(C)c3cnc(Nc4cc5ncc(C)nc5cc4C)nc32)CC1` [Example 4, 9-(1-acetylpiperidin-4-yl)-2-((2,7-dimethylquinoxalin-6-yl)amino)-7-methyl-7,9-dihydro-8H-purin-8-one], the IC50 on DNAPK was 0.251 µM. In addition, the “JAK3 enz pIC50” value at JAK3 was below 5. At JAK1, the “JAK1 enz pIC50” value was below 5.

Turning to `CC(=O)N1CCC(n2c(=O)n(C)c3cnc(Nc4cc5nc(C)cnc5cc4C)nc32)CC1` [Example 5, 9-(1-acetylpiperidin-4-yl)-2-((3,7-dimethylquinoxalin-6-yl)amino)-7-methyl-7,9-dihydro-8H-purin-8-one], the IC50 at DNAPK is 0.1 µM. In addition, the “JAK3 enz pIC50” value at JAK3 is listed as below 5. The “JAK1 enz pIC50” value at JAK1 is below 5.

As for `Cc1cc2ncccc2cc1Nc1ncc2c(n1)n([C@H]1CC[C@H](O)CC1)c(=O)n2C` [Example 6, 9-((1r,4r)-4-hydroxycyclohexyl)-7-methyl-2-((7-methylquinolin-6-yl)amino)-7,9-dihydro-8H-purin-8-one], the IC50 on DNAPK was 0.00501 µM. In addition, the “JAK3 enz pIC50” value at JAK3 is listed as below 5. At JAK1, the “JAK1 enz pIC50” value was below 5.

For `Cc1cc2nnccc2cc1Nc1ncc2c(n1)n([C@H]1CC[C@H](O)CC1)c(=O)n2C` [Example 7, 9-((1r,4r)-4-hydroxycyclohexyl)-7-methyl-2-((7-methylcinnolin-6-yl)amino)-7,9-dihydro-8H-purin-8-one], on DNAPK, the IC50 was 0.0501 µM. Also, on JAK3, the “JAK3 enz pIC50” value was below 5. Also, the “JAK1 enz pIC50” value on JAK1 is on record as below 5.

As to `Cc1cc2nccc(C)c2cc1Nc1ncc2c(n1)n([C@H]1CC[C@H](O)CC1)c(=O)n2C` [Example 8, 2-((4,7-dimethylquinolin-6-yl)amino)-9-((1r,4r)-4-hydroxycyclohexyl)-7-methyl-7,9-dihydro-8H-purin-8-one], the IC50 was 0.01 µM on DNAPK, above 10 µM at JAK3 and above 10 µM on JAK1.

Consider `COc1ccnc2cc(C)c(Nc3ncc4c(n3)n([C@H]3CC[C@H](O)CC3)c(=O)n4C)cc12` [Example 9, 9-((1r,4r)-4-hydroxycyclohexyl)-2-((4-methoxy-7-methylquinolin-6-yl)amino)-7-methyl-7,9-dihydro-8H-purin-8-one], for which the IC50 at DNAPK is 0.00794 µM. Besides, the “JAK3 enz pIC50” value on JAK3 is below 5. Besides, the “JAK1 enz pIC50” value at JAK1 is reported as below 5.

For the molecule `Cc1cc2nccnc2cc1Nc1ncc2c(n1)n([C@H]1CC[C@H](O)CC1)c(=O)n2C` [Example 10, 9-((1r,4r)-4-hydroxycyclohexyl)-7-methyl-2-((7-methylquinoxalin-6-yl)amino)-7,9-dihydro-8H-purin-8-one], the IC50 is 0.01 µM at DNAPK, above 10 µM at JAK3 and above 10 µM on JAK1.

Take `Cc1cc2ncccc2cc1Nc1ncc2c(n1)n([C@H]1CC[C@@H](O)CC1)c(=O)n2C` [Example 11, 9-((1s,4s)-4-hydroxycyclohexyl)-7-methyl-2-((7-methylquinolin-6-yl)amino)-7,9-dihydro-8H-purin-8-one]: the IC50 on DNAPK is 0.02 µM; at JAK3, above 10 µM; at JAK1 it was above 10 µM.

For `Cc1cc2nnccc2cc1Nc1ncc2c(n1)n([C@H]1CC[C@@H](O)CC1)c(=O)n2C` [Example 12, 9-((1s,4s)-4-hydroxycyclohexyl)-7-methyl-2-((7-methylcinnolin-6-yl)amino)-7,9-dihydro-8H-purin-8-one], the IC50 on DNAPK is 0.02 µM. Further, the “JAK3 enz pIC50” value at JAK3 is on record as below 5. Also, on JAK1, the “JAK1 enz pIC50” value was below 5.

`Cc1cc2nccnc2cc1Nc1ncc2c(n1)n([C@H]1CC[C@@H](O)CC1)c(=O)n2C` [Example 13, 9-((1s,4s)-4-hydroxycyclohexyl)-7-methyl-2-((7-methylquinoxalin-6-yl)amino)-7,9-dihydro-8H-purin-8-one]: the values for the IC50 on DNAPK, at JAK3 and at JAK1 were 0.0158 µM, above 10 µM and above 10 µM, respectively.

For the molecule `Cc1cc2nccnc2cc1Nc1ncc2c(n1)n([C@H]1CC[C@](C)(O)CC1)c(=O)n2C` [Example 18, 9-((1r,4r)-4-hydroxy-4-methylcyclohexyl)-7-methyl-2-((7-methylquinoxalin-6-yl)amino)-7,9-dihydro-8H-purin-8-one], the values for the IC50 at DNAPK, on JAK3 and on JAK1 were 0.0501 µM, above 10 µM and above 10 µM, respectively.

Regarding `Cc1cc2nccnc2cc1Nc1ncc2c(n1)n([C@H]1CC[C@@](C)(O)CC1)c(=O)n2C` [Example 19, 9-((1s,4s)-4-hydroxy-4-methylcyclohexyl)-7-methyl-2-((7-methylquinoxalin-6-yl)amino)-7,9-dihydro-8H-purin-8-one], the IC50 on DNAPK was 0.0251 µM; at JAK3, above 10 µM; at JAK1, above 10 µM.

Turning to `Cc1cc2nccnc2cc1Nc1ncc2c(n1)n([C@]1(C)CC[C@H](O)CC1)c(=O)n2C` [Example 20, 9-((1s,4s)-4-hydroxy-1-methylcyclohexyl)-7-methyl-2-((7-methylquinoxalin-6-yl)amino)-7,9-dihydro-8H-purin-8-one], the IC50 at DNAPK was 0.02 µM. Also, the “JAK3 enz pIC50” value at JAK3 is listed as below 5. Also, the “JAK1 enz pIC50” value on JAK1 is reported as below 5.

For the molecule `Cc1cc2nnccc2cc1Nc1ncc2c(n1)n([C@H]1CCOC1)c(=O)n2C` [Example 21, (S)-7-methyl-2-((7-methylcinnolin-6-yl)amino)-9-(tetrahydrofuran-3-yl)-7,9-dihydro-8H-purin-8-one], the IC50 at DNAPK was 0.0158 µM. For the same molecule, the “JAK3 enz pIC50” value on JAK3 was below 5. Moreover, on JAK1, the “JAK1 enz pIC50” value is listed as below 5.

Turning to `Cc1cc2nccnc2cc1Nc1ncc2c(n1)n([C@H]1CCOC1)c(=O)n2C` [Example 22, (S)-7-methyl-2-((7-methylquinoxalin-6-yl)amino)-9-(tetrahydrofuran-3-yl)-7,9-dihydro-8H-purin-8-one], the IC50 at DNAPK is 0.0251 µM. Besides, on JAK3, the “JAK3 enz pIC50” value is below 5. Further, on JAK1, the “JAK1 enz pIC50” value is recorded as below 5.
